{"source": "ChEMBL document CHEMBL2073898", "about": "“Overexpression of the BCRP/MXR/ABCP gene in a topotecan-selected ovarian tumor cell line” (Cancer Res, 1999)", "key": {"[1]": {"molecular_target": "T1, Broad substrate specificity ATP-binding cassette transporter ABCG2 (Homo sapiens, UniProt Q9UNQ0)", "T1 sequence (Q9UNQ0 whole entry)": "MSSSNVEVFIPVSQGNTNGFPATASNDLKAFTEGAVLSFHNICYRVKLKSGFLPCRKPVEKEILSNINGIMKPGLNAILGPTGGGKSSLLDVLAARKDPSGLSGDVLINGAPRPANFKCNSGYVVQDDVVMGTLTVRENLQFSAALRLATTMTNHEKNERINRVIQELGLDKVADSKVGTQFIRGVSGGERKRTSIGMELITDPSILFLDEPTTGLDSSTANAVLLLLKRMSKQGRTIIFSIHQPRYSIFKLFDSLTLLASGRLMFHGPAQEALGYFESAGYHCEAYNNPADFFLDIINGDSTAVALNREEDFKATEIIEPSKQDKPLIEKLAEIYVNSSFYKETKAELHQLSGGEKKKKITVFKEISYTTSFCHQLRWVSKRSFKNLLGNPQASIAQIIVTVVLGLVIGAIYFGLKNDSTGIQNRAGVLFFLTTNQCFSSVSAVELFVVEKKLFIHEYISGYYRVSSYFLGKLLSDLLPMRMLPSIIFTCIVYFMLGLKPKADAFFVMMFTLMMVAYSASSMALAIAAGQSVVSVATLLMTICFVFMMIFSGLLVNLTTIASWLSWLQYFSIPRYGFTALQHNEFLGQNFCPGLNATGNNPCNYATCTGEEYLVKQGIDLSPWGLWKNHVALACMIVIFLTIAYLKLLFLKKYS", "assay": "TP_TRANSPORTER: intracellular concentration of the drug is lower compared with IGROV1 in T8 cells", "format": "functional, cell-based"}, "[2]": {"molecular_target": "T1, Broad substrate specificity ATP-binding cassette transporter ABCG2", "assay": "TP_TRANSPORTER: intracellular concentration of the drug is lower compared with IGROV1 in MX3 cells", "format": "functional, cell-based"}}}
{"smiles": "CC[C@@]1(O)C(=O)OCc2c1cc1n(c2=O)Cc2cc3c(CN(C)C)c(O)ccc3nc2-1", "note": "[TOPOTECAN]", "values": [{"measurement": "Activity", "setting": "[1]", "value": "substrate [+]"}, {"measurement": "Activity", "setting": "[2]", "value": "substrate [+]"}]}
